Laboratory results taken from patent US9561228B2 (Celgene Avilomics Research, Inc., priority 2013, dated 2017).
Read-outs that look alike come from different tables or passages of the source.

Columns and labels:
[1] = test system: ERK1/2 phosphorylation of p90RSK in HCT116 cells; experiment: Detection of total and phospho-RSK by MSD ELISA (HCT116); format: cell-based; conditions: Homo sapiens, HCT-116, read-out: ERK1/ERK2 PRSK HCT116 EC50
In short: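 ERK1/2 activity read in cells as p90RSK phosphorylation: lysates from HCT116 cells given compound for 2 h at 37° C were captured on MSD plates. Detection used a pSer380 RSK or a total RSK antibody with SulfoTag secondaries.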

MEK1 activated ERK1 = biological target: T1, MEK1 activated ERK1 (Homo sapiens, UniProt P27361); experiment: Omnia continuous-read kinase assay for potency against MEK1 activated ERK1; format: biochemical
T1 construct: purchased Millipore (Billerica, Mass.) 14-439-K
In short: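 Apparent IC50 came from initial reaction slopes (RFU vs time) plotted against log inhibitor with a variable-slope fit. Reactions were started with ERK1 (4 nM final) added to 50 μM ATP, roughly at its appKM, and 10 μM Sox-conjugated ST17 peptide in 20 mM Tris pH 7.5, 5 mM MgCl2. Fluorescence was monitored every 71 seconds.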

T1 sequence (P27361 whole entry): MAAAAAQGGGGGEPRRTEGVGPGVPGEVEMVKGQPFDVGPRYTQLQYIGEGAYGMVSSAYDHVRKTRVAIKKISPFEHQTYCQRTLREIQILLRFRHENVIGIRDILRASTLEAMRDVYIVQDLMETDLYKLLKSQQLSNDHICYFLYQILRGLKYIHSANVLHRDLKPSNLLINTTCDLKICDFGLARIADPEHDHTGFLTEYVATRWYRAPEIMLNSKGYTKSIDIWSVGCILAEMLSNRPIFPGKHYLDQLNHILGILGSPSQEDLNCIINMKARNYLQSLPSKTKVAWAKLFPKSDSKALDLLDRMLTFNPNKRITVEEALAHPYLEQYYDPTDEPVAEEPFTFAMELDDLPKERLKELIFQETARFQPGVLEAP

Row | EC50 [1] | IC50 (MEK1 activated ERK1; ATP at KM, WT) | SMILES | IC50 (MEK1 activated ERK1; MEK1 activated ERK1, ATP at KM, read-out: ERK1 Omnia WT ATP KM IC50)
1 | < 0.1 µM | < 0.1 µM | C=CC(=O)Nc1cc(C)c(F)cc1Nc1nc(Nc2nc(OC)ncc2Cl)ncc1C(F)(F)F [Compound I-374, N-(2-((2-((5-chloro-2-methoxypyrimidin-4-yl)amino)-5-(trifluoromethyl)pyrimidin-4-yl)amino)-4-fluoro-5-methylphenyl)acrylamide] | –
2 | > 1 µM | > 1 µM | C=CC(=O)Nc1cc(C)c(C#N)cc1Nc1nc(NC2CCOCC2)ncc1C(F)(F)F [Compound I-397, N-(4-cyano-5-methyl-2-((2-((tetrahydro-2H-pyran-4-yl)amino)-5-(trifluoromethyl)pyrimidin-4-yl)amino)phenyl)acrylamide] | –
3 | < 0.1 µM | < 0.1 µM | C=CC(=O)Nc1cc(CN2CCN(C(=O)CO)CC2)ccc1Nc1nc(Nc2cc(OC)ncc2C)ncc1C(F)(F)F [Compound I-385, N-(5-((4-(2-hydroxyacetyl)piperazin-1-yl)methyl)-2-((2-((2-methoxy-5-methylpyridin-4-yl)amino)-5-(trifluoromethyl)pyrimidin-4-yl)amino)phenyl)acrylamide] | –
4 | < 0.1 µM | < 0.1 µM | C=CC(=O)Nc1cc(OCC(N)=O)ccc1Nc1nc(Nc2cc(OC)ncc2C)ncc1C(F)(F)F [Compound I-398, N-(5-(2-amino-2-oxoethoxy)-2-((2-((2-methoxy-5-methylpyridin-4-yl)amino)-5-(trifluoromethyl)pyrimidin-4-yl)amino)phenyl)acrylamide] | –
5 | 0.501 to 0.999 µM | 0.101 to 0.5 µM | C=CC(=O)Nc1cc(CN2CCN(C(C)=O)CC2)ccc1Nc1nc(Nc2nc(OC)ncc2C)ncc1C(F)(F)F [Compound I-382, N-(5-((4-acetylpiperazin-1-yl)methyl)-2-((2-((2-methoxy-5-methylpyrimidin-4-yl)amino)-5-(trifluoromethyl)pyrimidin-4-yl)amino)phenyl)acrylamide] | –
6 | 0.101 to 0.5 µM | 0.501 to 0.999 µM | C=CC(=O)Nc1cc(C)ccc1Nc1nc(Nc2nc(OC)ncc2C#N)ncc1C(F)(F)F [Compound I-346, N-(2-((2-((5-cyano-2-methoxypyrimidin-4-yl)amino)-5-(trifluoromethyl)pyrimidin-4-yl)amino)-5-methylphenyl)acrylamide] | –
7 | 0.101 to 0.5 µM | 0.501 to 0.999 µM | C=CC(=O)Nc1cc(O[C@@H](C)C(=O)N2CCN(S(C)(=O)=O)CC2)ccc1Nc1nc(Nc2cc(OC)ncc2C)ncc1C(F)(F)F [Compound I-426, (S)—N-(2-((2-((2-methoxy-5-methylpyridin-4-yl)amino)-5-(trifluoromethyl)pyrimidin-4-yl)amino)-5-((1-(4-(methylsulfonyl)piperazin-1-yl)-1-oxopropan-2-yl)oxy)phenyl)acrylamide] | –
8 | > 1 µM | > 1 µM | C=CC(=O)Nc1cc(C)c(F)cc1Nc1nc(Nc2cc(OC)ncc2C)ncc1C(F)(F)F [Compound I-366, N-(4-fluoro-2-((2-((2-methoxy-5-methylpyridin-4-yl)amino)-5-(trifluoromethyl)pyrimidin-4-yl)amino)-5-methylphenyl)acrylamide] | –
9 | 0.101 to 0.5 µM | 0.101 to 0.5 µM | C=CC(=O)Nc1cc(C)ccc1Nc1nc(Nc2ncc(C(F)(F)F)c(OC)n2)ncc1C(F)(F)F [Compound I-354, N-(2-((2-((4-methoxy-5-(trifluoromethyl)pyrimidin-2-yl)amino)-5-(trifluoromethyl)pyrimidin-4-yl)amino)-5-methylphenyl)acrylamide] | –
10 | 0.101 to 0.5 µM | 0.101 to 0.5 µM | C=CC(=O)Nc1cc(C)ccc1Nc1nc(Nc2nc(OC)ncc2C(F)(F)F)ncc1C(F)(F)F [Compound I-355, N-(2-((2-((2-methoxy-5-(trifluoromethyl)pyrimidin-4-yl)amino)-5-(trifluoromethyl)pyrimidin-4-yl)amino)-5-methylphenyl)acrylamide] | –
11 | > 1 µM | 0.501 to 0.999 µM | C=CC(=O)Nc1cc(C)ccc1Nc1nc(Nc2cnc(OC)cc2C)ncc1C(F)(F)F [Compound I-350, N-(2-((2-((6-methoxy-4-methylpyridin-3-yl)amino)-5-(trifluoromethyl)pyrimidin-4-yl)amino)-5-methylphenyl)acrylamide] | –
12 | 0.101 to 0.5 µM | 0.101 to 0.5 µM | C=CC(=O)Nc1cc(C)ccc1Nc1nc(Nc2nc(OC)ncc2OC)ncc1C(F)(F)F [Compound I-349, N-(2-((2-((2,5-dimethoxypyrimidin-4-yl)amino)-5-(trifluoromethyl)pyrimidin-4-yl)amino)-5-methylphenyl)acrylamide] | –
13 | 0.501 to 0.999 µM | 0.101 to 0.5 µM | C=CC(=O)Nc1cc(C)ccc1Nc1nc(Nc2ccnc3ccccc23)ncc1C(F)(F)F [Compound I-379, N-(5-methyl-2-((2-(quinolin-4-ylamino)-5-(trifluoromethyl)pyrimidin-4-yl)amino)phenyl)acrylamide] | –
14 | 0.501 to 0.999 µM | 0.101 to 0.5 µM | C=CC(=O)Nc1cc(CN2CCN(C)CC2)ccc1Nc1nc(Nc2nc(OC)ncc2C)ncc1C(F)(F)F [Compound I-394, N-(2-((2-((2-methoxy-5-methylpyrimidin-4-yl)amino)-5-(trifluoromethyl)pyrimidin-4-yl)amino)-5-((4-methylpiperazin-1-yl)methyl)phenyl)acrylamide] | –
15 | 0.501 to 0.999 µM | 0.501 to 0.999 µM | C=CC(=O)Nc1cc(C)ccc1Nc1nc(Nc2ncc(F)c(OC)n2)ncc1C(F)(F)F [Compound I-356, N-(2-((2-((5-fluoro-4-methoxypyrimidin-2-yl)amino)-5-(trifluoromethyl)pyrimidin-4-yl)amino)-5-methylphenyl)acrylamide] | –
16 | > 1 µM | > 1 µM | C=CC(=O)Nc1cc(C)ccc1Nc1nc(NCC2COC2)ncc1C(F)(F)F [Compound I-417, N-(5-methyl-2-((2-((oxetan-3-ylmethyl)amino)-5-(trifluoromethyl)pyrimidin-4-yl)amino)phenyl)acrylamide] | –
17 | > 1 µM | > 1 µM | C=CC(=O)Nc1c(Nc2nc(Nc3cc(OC)ncc3C)ncc2OC)cccc1OCc1nccs1 [Compound I-411, N-(2-((5-methoxy-2-((2-methoxy-5-methylpyridin-4-yl)amino)pyrimidin-4-yl)amino)-6-(thiazol-2-ylmethoxy)phenyl)acrylamide] | –
18 | 0.101 to 0.5 µM | < 0.1 µM | C=CC(=O)Nc1cc(C)ccc1Nc1nc(Nc2nc(OC)ncc2C)ncc1C(F)(F)F [Compound I-347, N-(2-((2-((2-methoxy-5-methylpyrimidin-4-yl)amino)-5-(trifluoromethyl)pyrimidin-4-yl)amino)-5-methylphenyl)acrylamide] | –
19 | 0.101 to 0.5 µM | 0.101 to 0.5 µM | C=CC(=O)Nc1cc(C(=O)N2CCN(S(C)(=O)=O)CC2)ccc1Nc1nc(Nc2cc(OC)ncc2C)ncc1C(F)(F)F [Compound I-401, N-(2-((2-((2-methoxy-5-methylpyridin-4-yl)amino)-5-(trifluoromethyl)pyrimidin-4-yl)amino)-5-(4-(methylsulfonyl)piperazine-1-carbonyl)phenyl)acrylamide] | –
20 | 0.101 to 0.5 µM | 0.101 to 0.5 µM | C=CC(=O)Nc1cc(CN2CCN(S(C)(=O)=O)CC2)ccc1Nc1nc(Nc2nc(OC)ncc2C)ncc1C(F)(F)F [Compound I-383, N-(2-((2-((2-methoxy-5-methylpyrimidin-4-yl)amino)-5-(trifluoromethyl)pyrimidin-4-yl)amino)-5-((4-(methylsulfonyl)piperazin-1-yl)methyl)phenyl)acrylamide] | –
21 | > 1 µM | 0.101 to 0.5 µM | C=CC(=O)Nc1cc(C)ccc1Nc1nc(Nc2nc(OC)nc(OC)n2)ncc1C(F)(F)F [Compound I-371, N-(2-((2-((4,6-dimethoxy-1,3,5-triazin-2-yl)amino)-5-(trifluoromethyl)pyrimidin-4-yl)amino)-5-methylphenyl)acrylamide] | –
22 | 0.101 to 0.5 µM | 0.101 to 0.5 µM | C=CC(=O)Nc1cc(OC(F)(F)F)ccc1Nc1nc(Nc2cc(OC)ncc2C)ncc1C(F)(F)F [Compound I-407, N-(2-((2-((2-methoxy-5-methylpyridin-4-yl)amino)-5-(trifluoromethyl)pyrimidin-4-yl)amino)-5-(trifluoromethoxy)phenyl)acrylamide] | –
23 | 0.101 to 0.5 µM | 0.101 to 0.5 µM | C=CC(=O)Nc1cc(CN2CCOCC2)ccc1Nc1nc(Nc2cc(OC)ncc2C)ncc1C(F)(F)F [Compound I-399, N-(2-((2-((2-methoxy-5-methylpyridin-4-yl)amino)-5-(trifluoromethyl)pyrimidin-4-yl)amino)-5-(morpholinomethyl)phenyl)acrylamide] | –
24 | 0.101 to 0.5 µM | 0.101 to 0.5 µM | C=CC(=O)Nc1cc(C)ccc1Nc1nc(Nc2nc(OC)ncc2F)ncc1C(F)(F)F [Compound I-357, N-(2-((2-((5-fluoro-2-methoxypyrimidin-4-yl)amino)-5-(trifluoromethyl)pyrimidin-4-yl)amino)-5-methylphenyl)acrylamide] | –
25 | > 1 µM | 0.101 to 0.5 µM | C=CC(=O)Nc1cc(CN2CCN(C(=O)c3cccnc3)CC2)ccc1Nc1nc(Nc2nc(OC)ncc2C)ncc1C(F)(F)F [Compound I-392, N-(2-((2-((2-methoxy-5-methylpyrimidin-4-yl)amino)-5-(trifluoromethyl)pyrimidin-4-yl)amino)-5-((4-nicotinoylpiperazin-1-yl)methyl)phenyl)acrylamide] | –

Row | SMILES | EC50 [1] | IC50 (MEK1 activated ERK1; ATP at KM, WT) | IC50 (MEK1 activated ERK1; MEK1 activated ERK1, ATP at KM, read-out: ERK1 Omnia WT ATP KM IC50)
26 | C=CC(=O)Nc1cc(C)ccc1Nc1nc(Nc2cc(N[C@H]3CC[C@](C)(O)CC3)nc(OC)c2)ncc1C(F)(F)F [Compound I-327, N-(2-((2-((2-((trans-4-hydroxy-4-methylcyclohexyl)amino)-6-methoxypyridin-4-yl)amino)-5-(trifluoromethyl)pyrimidin-4-yl)amino)-5-methylphenyl)acrylamide] | < 0.1 µM | – | 0.101 to 0.5 µM
